Experimental data from article PMC7496931, “Activation of Sirtuin 2 Inhibitors Employing Photoswitchable Geometry and Aqueous Solubility” (Chemmedchem, 2020).

Experiments:
[1] = UV/Vis spectra and half-life of thermal Z→E isomerization; format: physicochemical; set-up: k of thermal Z→E isomerization (non-linear regression): unit not given here; conditions: for λΔ/max absorption maximum at thermal equilibrium: 50 μM in DMSO/assay buffer; for k of thermal Z→E isomerization (non-linear regression): 50 μM
Protocol: (§1) Photochemistry: All photoisomerization experiments were conducted under ruby light of 630 nm and total exclusion of daylight. Illumination was executed using a Bio‐Link 254 Crosslinker from Vilber‐Lourmat equipped with six Vilber‐Lourmat T8‐L lamps (8 W, 365 nm). Visible light radiation of 630 nm (ruby) and 452 nm (blue) was derived from a Paulmann FlexLED 3D strip. All compounds were irradiated in solution using spectrophotometric grade solvents. Photoisomerization and UV/Vis‐spectra measurement was conducted in quartz glass cuvettes (114‐QS, Hellma Analytics) at room temperature.
UV/Vis Spectra and Half-Life of Thermal Isomerization
The half-life of the thermal Z→E isomerization after 5 minutes of 365 nm irradiation was determined by UV/Vis-spectroscopy. Therefore, solutions of the respective compounds (50 µM) in 5%, 50% or 90% DMSO in enzyme assay buffer (v/v) were prepared. An initial spectrum of the thermal equilibrium was recorded. After 5 minutes of irradiation with 365 nm the increase of absorbance at the thermal equilibrium maximum (λ∆max) was recorded as exemplified by compound 15c (Figure S3). Absorbance at λ = λ ∆max was plotted as a function of time. Non-linear regression yielded the half-life of the thermal Z→E isomerization (Table S1). For extrapolation of the reaction kinetics, the plateau value was set to the initial absorbance at λ=λ∆max. The following equation was used for non-linear regression:
y = (y0 − Plateau)e−kx + Plateau
Figure S3: Left: UV-Vis spectrum of 15c (50 µM) in assay buffer (5% DMSO, v/v) at the thermal equilibrium (∆) and the photostationary state (PSS) after UV irradiation (365 nm). Right:
Absorbance of 15c (50 µm) in assay buffer (5% DMSO, v/v) at λ∆max = 328 nm after 5 minutes of UV (365 nm) irradiation.
(1 picture or pasted object on this page, not shown here)

[2] = Photoisomer distribution (PSD) by HPLC-ELSD; format: physicochemical; conditions: for E/Z [%] PSD @ 365 nm / PSD after 365 nm radiation, share of the Z isomer: after 365 nm irradiation; for E/Z [%] PSD @ 365 nm / E/Z [%] PSD @ 452 nm: HPLC in MeOH/water, ELSD; for E/Z [%] PSD @ 452 nm: after 452 nm irradiation
Protocol: as §1

[3] = 50 % DMSO (v/v) in assay buffer
[4] = 90 % DMSO (v/v) in assay buffer

| SMILES | λΔ/max absorption maximum at thermal equilibrium ([1]; 50 % DMSO (v/v)) | k of thermal Z→E isomerization (non-linear regression) [1, 3] | E/Z [%] PSD @ 365 nm [2] | E/Z [%] PSD @ 452 nm [2] | λΔ/max absorption maximum at thermal equilibrium ([1]; 90 % DMSO (v/v)) | k of thermal Z→E isomerization (non-linear regression) [1, 4] | melting point | λΔ/max absorption maximum at thermal equilibrium ([1]; 5 % DMSO (v/v)) | k of thermal Z→E isomerization (non-linear regression) ([1]; 5 % DMSO (v/v) in assay buffer) | PSD after 365 nm radiation, share of the Z isomer [2] |
| --- | --- | --- | --- | --- | --- | --- | --- | --- | --- | --- |
| CC(C)(C)OC(=O)Cc1ccc(/N=N/c2cncc(C(N)=O)c2)cc1 [15 b] | 332 nm | 0.02959 | 6/94 | 90/10 |  |  |  |  |  |  |
| CCCCCC(=O)Nc1c(C)cc(/N=N/c2cncc(C(N)=O)c2)cc1C [9 c] | 339 nm | 0.043 | 9/91 | 87/13 |  |  |  |  |  |  |
| Cc1cc(/N=N/c2cncc(C(N)=O)c2)cc(C)c1NC(=O)c1ccc(F)cc1 [9 i] | 337 nm | 1.193 | 12/88 | 91/9 |  |  |  |  |  |  |
| C#Cc1ccc(/N=N/c2cccc(COc3cncc(C(N)=O)c3)c2)cc1 [20 c] | 340 nm |  |  |  |  |  |  |  |  |  |
| CCCCCCCCCC(=O)Nc1c(C)cc(/N=N/c2cncc(C(N)=O)c2)cc1C [9 e] |  |  | 10/90 | 90/10 | 344 nm | 0.03173 |  |  |  |  |
| Cc1cc(/N=N/c2cncc(C(N)=O)c2)cc(C)c1NC(=O)C12CC3CC(CC(C3)C1)C2 [9 k] | 339 nm | 0.1022 | 14/86 | 89/11 |  |  |  |  |  |  |
| Cc1cc(/N=N/c2cncc(C(N)=O)c2)cc(C)c1NC(=O)c1ccccc1 [9 h] | 337 nm | 0.9524 | 14/86 | 91/9 |  |  | 267 °C (dec.) |  |  |  |
| NC(=O)c1cncc(/N=N/c2ccc(Br)cc2)c1 [15 d] |  |  | 9/91 | 91/9 |  |  |  | 332 nm | 0.003156 |  |
| CCCCCCCCCCCC(=O)Nc1c(C)cc(/N=N/c2cncc(C(N)=O)c2)cc1C [9 f] |  |  | 10/90 | 91/9 | 346 nm | 0.03286 |  |  |  |  |
| NC(=O)c1cncc(/N=N/c2ccc(C#CCCCCO)cc2)c1 [15 g] | 355 nm | 0.0139 | 25/75 | 89/11 |  |  |  |  |  |  |
| CCCCNC(=O)c1ccc(/N=N/c2cncc(C(N)=O)c2)cc1 [15 e] | 326 nm | 0.002728 | 40/60 | 89/11 |  |  |  |  |  | 60–70% |
| CCCCCCCCCCCCCC(=O)Nc1c(C)cc(/N=N/c2cncc(C(N)=O)c2)cc1C [9 g] |  |  | 14/86 | 87/13 | 345 nm | 0.02709 | 254.1 °C |  |  |  |
| CC(C)(O)C#Cc1ccc(/N=N/c2cncc(C(N)=O)c2)cc1 [15 h] | 350 nm | 0.00906 | 23/77 | 92/8 |  |  | 223.3 °C |  |  |  |
| CC(C)(C)OC(=O)NCc1ccc(/N=N/c2cncc(C(N)=O)c2)cc1 [15 c] |  |  | 11/89 | 86/14 |  |  | 212.1 °C (dec.) | 329 nm | 0.002173 |  |
| NC(=O)c1cncc(OCc2cccc(/N=N/c3ccc(F)cc3)c2)c1 [20 b] | 324 nm |  | 2/98 | 83/17 |  |  | 202.1 °C |  |  |  |
| NC(=O)c1cncc(OCc2cccc(/N=N/c3ccc(OCc4ccccc4)cc3)c2)c1 [20 a] | 352 nm | 0.0207 | 4/96 | 80/20 |  |  |  |  |  |  |
| Cc1cc(/N=N/c2cncc(C(N)=O)c2)cc(C)c1NC(=O)c1ccc(-c2cccs2)cc1 [9 j] | 330 nm | 1.212 | 29/71 | 93/7 |  |  | 306.5 °C (dec.) |  |  |  |
| CC(C)(C)OC(=O)c1ccc(/N=N/c2cncc(C(N)=O)c2)cc1 [15 a] | 325 nm | 0.003905 | 31/69 | 94/6 |  |  |  |  |  | 60–70% |
| CCCCCCCC(=O)Nc1c(C)cc(/N=N/c2cncc(C(N)=O)c2)cc1C [9 d] |  |  | 9/91 | 88/12 | 345 nm | 0.03293 |  |  |  |  |
| CCCCCCCCCC(=O)NCc1ccc(/N=N/c2cncc(C(N)=O)c2)cc1 [15 f] |  |  | 5/95 | 79/21 | 333 nm | 0.006796 | 259.5 °C |  |  |  |
| CCCC(=O)Nc1c(C)cc(/N=N/c2cncc(C(N)=O)c2)cc1C [9 b] |  |  | 10/90 | 86/14 |  |  |  | 332 nm | 0.08608 |  |
